≈ marks a conversion by molar mass, not a printed value.
Assays:
[1] = Physical stability of polymorphs stirred in water, sonicated or mortared (XRPD); type: physicochemical; details: for Solid form by XRPD after stirring in water: slurry in water rotated for 24 hours
Experimental: The slurry was centrifuged and the supernatant was removed. The solid was dried under vacuum overnight and the sample was thereafter, stored at ambient conditions.
The slurry was centrifuged 3000 rpm for 10 minutes and the supernatant was removed. The solid was freezed (in a freezer) and freeze-dried overnight. The sample was kept at ambient conditions for 2 hours before the XRPD analysis.

[2] = Solubility in 1% SDS in water by LC-UV; type: physicochemical; details: after 24 hours rotation, ambient temperature
Experimental: The solubility was determined in triplicate by use of LC-UV chromatography. […] The substance was rotated in the specific medium at ambient temperature for 24 hours, followed by filtering the supernatant using a hydrophilic PVDF (Millipore Corp.) 0.22 μm filter. The samples were then diluted with a 1:1 mixture of mobile phase A and B (see below) and analyzed using an Xterra™ MS C18, 50×2.1 mm column with UV detection at 288 nm. The mobile phase consisted of acetonitrile, water and trifluoroacetic acid, 5:95:0.1 (A) and 99:1:0.1 (B).
Solubility determinations were performed in 1% sodium dodecyl sulfate (SDS) in water.

[3] = Dynamic Vapour Sorption (DVS) hygroscopicity; type: physicochemical; details: from 0 to 90% RH, 25° C.
Experimental: The hygroscopicity of the samples was studied by Dynamic Vapor Sorption Gravimetry (DVS) using a DVS-1 (Surface Measurement Ltd., UK).
Each sample was run in three consecutive full cycles. The condition to proceed to the next level of RH was a weight increase below or equal to 0.001% within 15 minutes, with a maximum total time per step of 24 hours. The temperature was kept at 25° C.

[4] = Three month solid state stability study (appearance, XRPD, TGA); type: physicochemical; details: for TGA mass loss from ambient temperature to 150° C.: after 3 months storage at 40° C./75% RH; for Change in appearance: open containers
Experimental: Analysis was made by using X-Ray Powder Diffration (XRPD) and Thermogravimetry (TGA).
Experiments were run as described above using Cu Kα1 radiation (45 kV and 40 mA) at ambient temperature and humidity. Scans were run in continous scan mode in the range 2-50° 2θ using automatic divergence and antiscatter slits with observed length of 10 mm, a step size of 0.013° 2θ and a common counting time of 97.920 seconds.
Thermogravimetry (TGA) was performed on a Seiko TG/DTA 6200 and open 90 μl Pt-pans with ca 10 to 20 mg of sample and a nitrogen flow of 200 mL/min. The temperature program was ambient (20° C.) to 400° C. with a heating rate of 10° C./min. A blank was subtracted and the TG data was normalized with respect to sample size and analyzed using the Muse Standard Analysis software, version 6.1 U.

[5] = Thermogravimetric analysis (TGA); type: physicochemical; details: initial analysis
Experimental: Thermogravimetric analysis (TGA) was performed on a Seiko TG/DTA 6200 and open 90 μl Pt-pans with ca 10 to 25 mg of sample and a nitrogen flow of 200 ml/min. The temperature program was ambient (20° C.) to 400° C. with a heating rate of 10° C./min. A blank was subtracted and the TG data was normalized with respect to sample size and analyzed using the Muse Standard Analysis software, version 6.1 U (Seiko, Japan).

[6] = Slurry experiments with mixture of polymorphs B and C in saturated picropodophyllin solutions; type: physicochemical
Experimental: The solid was filtered off and the saturated picropodophyllin solutions were used in the slurry experiment below.
The solid was filtered off using a glass filter and stored at ambient conditions for 2 hours.
The solid was filtered off using a glass filter and left on the glass filter for 30 minutes.
The slurry was slowly stirred overnight. The slurry was removed from the oil bath and immediately filtered through a glass filter. The solid was left on the glass filter for 30 minutes.
The slurry was slowly stirred for 4 hours. The slurry was removed from the oil bath and immediately filtered through a glass filter. The solid was left on the glass filter for 30 minutes.

[7] = Powder dissolution profiling (intrinsic dissolution rate and apparent solubility) in PhB 6.5 and FeSSIF pH 6.5
Experimental: Phosphate buffer pH 6.5 (PhB 6.5) was prepared according to a protocol by Galia and co-workers (Galia, E., et al. Evaluation of various dissolution media for predicting in vivo performance of class I and II drugs. Pharm Res 15, pp. 698-705 (1998)). Briefly, 1000 mL of […] Na2HPO4 buffer pH 6.5 was prepared by dissolving 3.95 g Na2HPO4xH2O, 6.19 g NaCl and 0.42 g NaOH in a volumetric flask by adding purified water. The pH was adjusted to pH to 6.5 by titration with 0.5 M NaOH and the volume was adjusted to 1000 mL with purified water. This buffer was sterile filtered and thereafter stored in refrigerator. Fed state simulated intestinal fluid (FeSSIF pH 6.5) was prepared fresh on the day of the experiment by dissolving 1.12 g of Na-taurocholate/lecithin powder (ePhares, Switzerland) in 100 mL PhB ((Galia, E., et al. Evaluation of various dissolution media for predicting in vivo performance of class I and II drugs. Pharm Res 15, pp. 698-705 (1998)). The media was stirred and preheated to 37±1° C. resulting in clear solution of pH 6.5 which contained a mixed micelle system of 15 mM taurocholate and 3.75 mM lecithin.
Dissolution rate and apparent solubility was measured with the pDISS Profiler™ (pION INC, MA, USA) from 0.3-1.3 mg compound weighed into the vial to which the preheated (37° C.) dissolution medium was added. […] Each UV probe was calibrated with its own standard curve prior to the experiment. The obtained results were analysed with the software accompanying the pDISS equipment.
The detailed procedure of the powder dissolution experiments, including the theoretical background, can be found in Avdeef, A., Tsinman, K., Tsinman, O., Sun, N. & Voloboy, D. Miniaturization of powder dissolution measurement and estimation of particle size. Chem Biodivers 6, 1796-1811 (2009); in Fagerberg, J. H., et al. Dissolution Rate and Apparent Solubility of Poorly Soluble Drugs in Biorelevant Dissolution Media. Mol Pharm 7, 1419-1430, (2010); and in Tsinman, K., Avdeef, A., Tsinman, O. & Voloboy, D. Powder dissolution method for estimating rotating disk intrinsic dissolution rates of low solubility drugs. Pharm Res 26, 2093-2100 (2009).

[8] = target: insulin-like growth factor-1 receptor (IGF-1R) (Homo sapiens, UniProt P08069); details: disclosed in WO 02/102804; cited from earlier work
Chain of insulin-like growth factor-1 receptor (IGF-1R) (P08069 31-1367, species assumed): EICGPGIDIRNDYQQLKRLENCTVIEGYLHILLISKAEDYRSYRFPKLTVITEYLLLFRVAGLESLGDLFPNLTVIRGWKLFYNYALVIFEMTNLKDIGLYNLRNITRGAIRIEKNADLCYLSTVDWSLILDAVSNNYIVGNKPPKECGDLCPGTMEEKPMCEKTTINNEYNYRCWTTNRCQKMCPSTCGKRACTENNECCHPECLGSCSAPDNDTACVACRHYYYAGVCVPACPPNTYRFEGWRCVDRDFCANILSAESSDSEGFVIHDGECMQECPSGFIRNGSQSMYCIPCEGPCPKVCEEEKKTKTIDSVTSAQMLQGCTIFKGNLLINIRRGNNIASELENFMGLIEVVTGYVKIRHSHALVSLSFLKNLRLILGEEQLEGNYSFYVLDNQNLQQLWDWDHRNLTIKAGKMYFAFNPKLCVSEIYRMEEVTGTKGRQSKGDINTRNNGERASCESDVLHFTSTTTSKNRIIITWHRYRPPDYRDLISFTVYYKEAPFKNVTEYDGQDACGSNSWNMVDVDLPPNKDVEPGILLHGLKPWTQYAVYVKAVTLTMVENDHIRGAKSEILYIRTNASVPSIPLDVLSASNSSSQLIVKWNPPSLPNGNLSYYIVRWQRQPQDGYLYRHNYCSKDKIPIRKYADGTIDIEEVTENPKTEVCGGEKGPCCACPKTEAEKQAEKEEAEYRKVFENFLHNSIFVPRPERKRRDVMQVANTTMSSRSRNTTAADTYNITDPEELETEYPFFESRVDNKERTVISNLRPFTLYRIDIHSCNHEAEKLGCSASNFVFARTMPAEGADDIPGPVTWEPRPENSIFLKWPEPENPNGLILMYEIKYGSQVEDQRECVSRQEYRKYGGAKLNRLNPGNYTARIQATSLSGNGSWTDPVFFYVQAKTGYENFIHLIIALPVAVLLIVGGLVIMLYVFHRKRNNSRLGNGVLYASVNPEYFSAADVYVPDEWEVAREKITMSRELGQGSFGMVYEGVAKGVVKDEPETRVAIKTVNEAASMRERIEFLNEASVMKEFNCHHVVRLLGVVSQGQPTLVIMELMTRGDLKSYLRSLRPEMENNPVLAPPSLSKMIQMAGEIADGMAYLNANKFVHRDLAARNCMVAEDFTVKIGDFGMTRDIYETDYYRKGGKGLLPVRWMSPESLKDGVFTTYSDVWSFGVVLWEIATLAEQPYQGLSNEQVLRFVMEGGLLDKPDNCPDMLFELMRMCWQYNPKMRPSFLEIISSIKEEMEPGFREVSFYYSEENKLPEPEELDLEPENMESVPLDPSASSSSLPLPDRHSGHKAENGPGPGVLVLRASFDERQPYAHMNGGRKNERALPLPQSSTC

[9] = listed as picropodophyllin polymorph B
[10] = listed as picropodophyllin polymorph C

## COc1cc([C@@H]2c3cc4c(cc3[C@H](O)[C@H]3COC(=O)[C@@H]23)OCO4)cc(OC)c1OC [polymorph B, picropodophyllin]
[1]
  Solid form by XRPD after stirring in water: converted to a mixture of mainly picropodophyllin monohydrate and some picropodophyllin polymorph B
[2]; 1% SDS in water, aqueous with cosolvent or surfactant or cyclodextrin, thermodynamic from solid
  solubility at 24 h: 700 µg/mL (≈ 1690 µM)
[3]
  DVS mass increase: 0.2%
[4]; 3 months storage at 25° C./60% RH
  Solid-state instability (XRPD, TGA): does not show any sign(s) of solid-state instability
[4]; 3 months storage at 40° C./75% RH
  Solid-state instability (XRPD, TGA): does not show any sign(s) of solid-state instability
[4]; [9]
  TGA mass loss from ambient temperature to 150° C.: 0.0±0.1%
[4]; 3 months at 25° C./60% RH
  Change in appearance: no change in appearance
[4]; 3 months at 40° C./75% RH
  Change in appearance: no change in appearance
[5]; [9]
  TGA mass loss from ambient temperature to 150° C.: 0.0±0.1%
[6]; acetone saturated with picropodophyllin, five days, ambient temperature
  Solid form obtained from slurry of polymorphs B and C: converted to polymorph C
[6]; ethyl acetate saturated with picropodophyllin, five days, ambient temperature
  Solid form obtained from slurry of polymorphs B and C: converted to polymorph C
[6]; mesitylene saturated with picropodophyllin, five days, ambient temperature
  Solid form obtained from slurry of polymorphs B and C: converted to polymorph C
[6]; mesitylene, 70° C., overnight
  Solid form obtained from slurry of polymorphs B and C: converted to polymorph C
[6]; mesitylene, 120° C., 4 hours
  Solid form obtained from slurry of polymorphs B and C: converted to polymorph C
[7]; FeSSIF pH 6.5, 37° C., assay time polymorph B 16 hours, polymorph C 1.3 hours, triplicate
  Apparent Solubility assay 1: 25.51 ± 0.51 µg/mL
[7]; FeSSIF pH 6.5 vs PhB 6.5
  Solubility increase in FeSSIF as compared to PhB 6.5: 2.2 fold
[7]; PhB 6.5, 37° C., assay time polymorph B 19 hours, polymorph C […], mean ± SD, triplicate
  Apparent Solubility assay 1: 11.72 ± 0.22 µg/mL

## COc1cc(C2c3cc4c(cc3C(O)[C@H]3COC(=O)[C@@H]23)OCO4)cc(OC)c1OC (stereo partly drawn) [picropodophyllin monohydrate, reference compound]
[2]; monohydrate
  Solubility in 1% SDS in water: 200 µg/mL

## COc1cc([C@@H]2c3cc4c(cc3[C@H](O)[C@H]3COC(=O)[C@@H]23)OCO4)cc(OC)c1OC [polymorph C, picropodophyllin]
[1]; in purified water, cooled on ice, sonicated for 5 minutes
  Solid form by XRPD after sonication: no phase change occurred
[1]; mortared for 5 minutes in agate mortar
  Solid form by XRPD after mortaring: no phase change occurred
[1]; [10]
  Solid form by XRPD after stirring in water: no phase change occurred
[2]; [10]
  Solubility in 1% SDS in water: 400 µg/mL (≈ 965 µM)
[4]; [10]
  TGA mass loss from ambient temperature to 150° C.: 0.1±0.1%
[5]; [10]
  TGA mass loss from ambient temperature to 150° C.: 0.1±0.1%
[7]; 37 °C, pH 6.5, aqueous buffer, thermodynamic from solid, Apparent Solubility Assay 1 + 2, PhB 6.5, 37° C., assays 1 and 2 combined, mean ± SD
  solubility: 5.85 ± 0.25 µg/mL
[7]; 37 °C, pH 6.5, aqueous buffer, thermodynamic from solid, Apparent Solubility assay 1, PhB 6.5, 37° C., assay time polymorph B 19 hours, polymorph C […], mean ± SD, triplicate
  solubility: 5.88 ± 0.09 µg/mL (≈ 14.2 µM)
[7]; 37 °C, pH 6.5, aqueous buffer, thermodynamic from solid, Apparent Solubility assay 2, PhB 6.5, 37° C., assay time 29 hours (value obtained after 50 minutes), mean ± SD, triplicate
  solubility at 50 min: 5.81 ± 0.38 µg/mL (≈ 14 µM)
[7]; 37 °C, pH 6.5, fessif, thermodynamic from solid, Apparent Solubility Assay 1 + 2, FeSSIF pH 6.5, 37° C., assays 1 and 2 combined
  solubility: 12.6 ± 0.8 µg/mL
[7]; 37 °C, pH 6.5, fessif, thermodynamic from solid, Apparent Solubility assay 2, FeSSIF pH 6.5, 37° C., assay time 25 hours, triplicate
  solubility at 25 h: 12.2 ± 1.07 µg/mL (≈ 29.5 µM)

## COc1cc([C@@H]2c3cc4c(cc3[C@H](O)[C@H]3COC(=O)[C@@H]23)OCO4)cc(OC)c1OC [picropodophyllin]
[8]
  Inhibition of IGF-1R: specific and potent inhibitor

— US9314525B2 (Axelar AB, priority 2010, dated 2016)
